PMC11987006 (iScience, 2025)

Experiments:
WT N2 animal [1] = assay: salt chemotaxis learning with tyramine/octopamine, WT N2; format: in vivo, C. elegans; details: 10 μM TA or OA or both in conditioning solutions or test plate agar
WT N2 animal [2] = assay: salt chemotaxis with tyramine/octopamine, WT N2; format: in vivo, C. elegans; details: 10 μM TA or OA or both in conditioning solutions or test plate agar

Structure (SMILES)	effect on SCL (learning index) (WT N2 animal [1])	effect on salt chemotaxis (WT N2 animal [2])
NCC(O)c1ccc(O)cc1 (stereo not shown) [OA, octopamine]	no obvious impact	no obvious impact
NCCc1ccc(O)cc1 [TA, tyramine]	no obvious impact	no obvious impact
